Like-named read-outs stand apart in the source and are kept apart here.
Legend:
[1] = test system: mitochondrial permeability transition pore (mPTP); test: Mitochondria swelling assay in response to Ca2+; parameters: species or system mice; conditions: for calcium-mediated mitochondrial swelling: with calcium
Method: Isolation of Brain Mitochondria. Brain from mice without white matter was used for mitochondrial isolation. Brain was homogenized in 9 ml of ice-cold EB buffer (1 mmol EDTA, 1-6 mg/ml BSA) using a Dounce homogenizer until no particles could be seen. Homogenates were centrifuged at 1300×g for 5 minutes. Supernatant from this fraction was carefully laid on top of a 15% PERCOLL solution (10 ml) and then centrifuged at 16000 RPM for 10 minutes. The pellet was carefully mixed with 9 ml of mitochondrial buffer (4.098% D-mannitol, 2.56% sucrose, 0.034% K2HPO4, pH 7.3-7.4) and 200 μl of 1% digitonin. After 5 minutes incubation on ice, the mixture was centrifuged at 8000 RPM for 10 minutes. Mitochondrial pellet was washed once with mitochondrial buffer. Subsequently, the mitochondrial pellet was resuspended in 100 μl of mitochondrial buffer and was used for further experiments.
Mitochondria Swelling Assay. A proper amount of mitochondria was resuspended into 1 ml swelling assay buffer (150 mM KCl, 2 mM KH2PO4, 10 mM HEPES, pH 7.4) and energized by 1 mM glutamate and 1 mM malate. Calcium at varying concentrations was added into the assay buffer to trigger mitochondrial swelling. Mitochondrial permeability transition was determined by studying the rate of change in absorbance at 540 nm via a spectrophotometer.
Mitochondrial Swelling in Response to Ca^2+. Given that the Compounds 4, 8 and 15 could inhibit ABAD activity, it was determined whether these same compounds could decrease mitochondrial permeability transition pore (mPTP) formation.

SK-N-SH cells = test: Mitochondrial cytochrome c oxidase (CcO) activity in Aβ-treated cells; assay type: cell-based; conditions: for CcO activity, inhibitor alone: 1 μM inhibitor alone, without Aβ; for Aβ-mediated decrease of CcO activity: 5 μM oligomer Aβ1-42 plus 1 μM compound, 48 hours
Method: SK-NSH cells were treated with 5 μM oligomer Aβ plus 1 μM of ABAD inhibitor; inhibitor alone; vehicle (VEH) without inhibitor; or Aβ alone. Forty-eight hour later, CcO activity (μmol protein mg^−1 min^−1) was measured in cell lysates.
Method of Measurement of Mitochondrial Cytochrome c Oxidase (CcO) Activity. The CcO activity was measured according to known methods (Du, et al. (2008) Nat. Med. 14:1097-105) with a cytochrome c oxidase kit (Sigma). In brief, SK-N-SH cells were incubated with ABAD inhibitor and oligomer Aβ for 48 hours. After washing the cells twice with PBS, the cells were collected and concentration was determined by the Bradford method. A suitable volume of cells and enzyme solution was added to 475 μl assay buffer. The reaction was triggered by the addition of 25 μl freshly prepared ferrocytochrome C substrate solution into the cuvette. Changes in OD550 nm were recorded immediately with an Amersham Biosciences ULTROSPECT 3100 pro spectrophotometer.
Cytochrome C Oxidase (CcO) Activity. To assess the effect of ABAD inhibitor on […] mitochondrial respiratory function, CcO activity was determined.

ABAD = ABAD (Homo sapiens (Human), UniProt Q99714); test: Inhibition of reduction of S-acetoacetyl-CoA (SAAC) by ABAD (ABAD enzymatic activity); assay type: biochemical
Method: Assay of ABAD Enzymatic Activity. […] Before the assay, all the assay components except SAAC were pre-incubated for 5 minutes, and the reaction started with the addition of SAAC into the reaction mix. The reaction was carried out for a total 6 minutes at room temperature under steady-state conditions, and the decrease of NADH absorbance at 340 nm was determined every 10 seconds. Kinetic data were analyzed by PRISM (Scitech, San Diego, Calif.) to determine IC50 values and Ki.

[2] = Table 6, reduction of SAAC by ABAD, read-out: IC50
[3] = Table 6, reduction of SAAC by ABAD, read-out: Ki
[4] = Table 7, read-out: ABAD Enzymatic Activity IC50
[5] = Table 7, read-out: ABAD Enzymatic Activity Ki

ABAD, sequence (Q99714 whole entry): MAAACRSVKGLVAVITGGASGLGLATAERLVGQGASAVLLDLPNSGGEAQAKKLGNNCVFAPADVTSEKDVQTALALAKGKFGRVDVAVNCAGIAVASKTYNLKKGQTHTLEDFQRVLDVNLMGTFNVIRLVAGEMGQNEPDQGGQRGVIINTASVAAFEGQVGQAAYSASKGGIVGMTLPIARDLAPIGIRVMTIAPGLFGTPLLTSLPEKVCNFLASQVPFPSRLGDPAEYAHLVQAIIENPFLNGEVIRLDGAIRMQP

For `COc1ccc2nc(N[C@@H](c3ccc(O)cc3)P(=O)(OC)OC)sc2c1` (racemic) [Compound 8, Dimethyl ((4-hydroxyphenyl)((6-methoxybenzo[d]thiazol-2-yl)amino)methyl)phosphonate], the calcium-mediated mitochondrial swelling [1] was “antagonized calcium-mediated mitochondrial swelling”, the “mitochondrial swelling without calcium” value [1] was “did not affect mitochondrial swelling without calcium” and the “CcO activity, inhibitor alone” value (SK-N-SH cells) was “no effect on CcO activity without Aβ”. For the same compound, the “Aβ-mediated decrease of CcO activity” value (SK-N-SH cells) was “reversed the Aβ-mediated decrease of CcO activity”, the IC50 (ABAD; [2]) was 259 µM and the Ki (ABAD; [3]) was 70.6 µM. For the same compound, the IC50 (ABAD; [4]) was 52.7 µM, the Ki (ABAD; [5]) was 14.9 µM and the “inhibitory effect on SAAC reduction by ABAD” value (ABAD; in words) was “most potent inhibitory effect”.

`COC(=O)c1cc([C@H](Nc2nc3ccc(OC)cc3s2)P(=O)(OC)OC)ccc1O` [Compound 4, Methyl 5-((dimethoxyphosphoryl)((6-methoxybenzo[d]thiazol-2-yl)amino)methyl)-2-hydroxybenzoate] was tested, and the calcium-mediated mitochondrial swelling [1] was “antagonized calcium-mediated mitochondrial swelling”, the “mitochondrial swelling without calcium” value [1] was “did not affect mitochondrial swelling without calcium” and the “CcO activity, inhibitor alone” value (SK-N-SH cells) was “no effect on CcO activity without Aβ”. The “Aβ-mediated decrease of CcO activity” value (SK-N-SH cells) was “reversed the Aβ-mediated decrease of CcO activity”, the IC50 (ABAD; [2]) was 19.6 µM and the Ki (ABAD; [3]) was 5.5 µM. The IC50 (ABAD; [4]) was 341 ± 68.7 µM, the Ki (ABAD; [5]) was 96.6 ± 19.4 µM and the “inhibitory effect on SAAC reduction by ABAD” value (ABAD; in words) was “modest inhibitory effect”.

For `COc1ccc2nc(N[C@@H](c3ccc(F)cc3)P(=O)(OC)OC)sc2c1` [Compound 15, Dimethyl ((4-fluorophenyl)((6-methoxybenzo[d]thiazol-2-yl)amino)methyl)phosphonate], the calcium-mediated mitochondrial swelling [1] was “antagonized calcium-mediated mitochondrial swelling”, the “mitochondrial swelling without calcium” value [1] was “did not affect mitochondrial swelling without calcium” and the “CcO activity, inhibitor alone” value (SK-N-SH cells) was “no effect on CcO activity without Aβ”. For the same compound, the “Aβ-mediated decrease of CcO activity” value (SK-N-SH cells) was “reversed the Aβ-mediated decrease of CcO activity”, the IC50 (ABAD; [4]) was 1260 ± 199 µM and the Ki (ABAD; [5]) was 356 ± 56.1 µM. For the same compound, the “inhibition of SAAC reduction by ABAD” value (ABAD; at 10 μM) was “did not inhibit” and the “inhibitory effect on SAAC reduction by ABAD” value (ABAD; at 100 or 400 μM) was “slight inhibitory effect”.

Reference: patent US9346839B2
